Data: patent US12123010B2, “Plants having increased tolerance to herbicides” (BASF SE, priority 2017, dated 2024)
“And” between values parts separate entries of the source, which are not always exact repeats. Identical values can stand only once.

What was measured:
[1] = target: Wild Type PPO Enzyme (Amaranthus PPO2, SEQ ID NO: 1) (Amaranthus tuberculatus, UniProt Q0NZW9); test: PPO enzyme assay (recombinant), wild type; assay type: biochemical
[2] = tested on: Variant PPO Enzyme R128A, F420V (Amaranthus PPO2); test: biochemical; assay type: biochemical; conditions: variant R128A, F420V vs wild type
[3] = tested on: Variant PPO Enzyme R128A, F420M (Amaranthus PPO2); assay type: biochemical; conditions: variant R128A, F420M vs wild type
[4] = tested on: Variant PPO Enzyme F420M (Amaranthus PPO2); test: biochemical; assay type: biochemical; conditions: variant F420M vs wild type
[5] = tested on: Transgenic T2 Arabidopsis plants harboring PPO inhibitor tolerance trait; test: Lab based germination assay in 48-well plates (Table i); assay type: in vivo, Arabidopsis thaliana; conditions: construct AMATU_PPO2_TP_hemG (Escherichia coli); in comparison to wild type plants
[6] = tested on: Transgenic T2 Arabidopsis plants and ARBTH WT MC24 non-transgenic; test: Greenhouse post spray test, injury 14 DAT (Tables ii, iii); assay type: in vivo, Arabidopsis thaliana; conditions: for pest or weed control at 50 g/ha / pest or weed control at 100 g/ha / pest or weed control at 200 g/ha / pest or weed control at 1 g/ha / pest or weed control at 5 g/ha / pest or weed control at 10 g/ha / pest or weed control at 30 g/ha / pest or weed control at 80 g/ha: Arabidopsis thaliana, 336 h;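 on all read-outs here: value is percent injury to the sprayed plants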
[7] = tested on: Transgenic T2 or T3 Soybean plants harbouring PPO inhibitor tolerance trait; test: Soybean Trial, post spray, injury score 14 DAT; assay type: in vivo
Method: Soybean cv Jake is transformed as previously described by Siminszky et al., Phytochem Rev. 5:445-458 (2006). After regeneration, transformants are transplanted to soil in small pots, placed in growth chambers (16 hr day/8 hr night; 25° C. day/23° C. night; 65% relative humidity; 130-150 microE m-2 s-1) and subsequently tested for the presence of the T-DNA via Taqman analysis. After a few weeks, healthy, transgenic positive, single copy events are transplanted to larger pots and allowed to grow in the growth chamber. An optimal shoot for cutting is about 3-4 inches tall, with at least two nodes present. Each cutting is taken from the original transformant (mother plant) and dipped into rooting hormone powder (indole-3-butyric acid, IBA). The cutting is then placed in oasis wedges inside a bio-dome. The mother plant is taken to maturity in the greenhouse and harvested for seed. Wild type cuttings are also taken simultaneously to serve as negative controls. The cuttings are kept in the bio-dome for 5-7 days and then transplanted to 3 inch pots and then acclimated in the growth chamber for two more days. Subsequently, the cuttings are transferred to the greenhouse, acclimated for approximately 4 days prior to spray. T0 or 2-week old T1 plants are sprayed with a treatment of the uracilpyridines as disclosed SUPRA and photosynthesis inhibitor diuron as negative control. Herbicide injury evaluations are taken at 2, 7, 14 and 21 days after treatment.
Transgenic T2 or T3 Soybean plants harbouring PPO inhibitor tolerance trait, were sprayed post with the indicated amount of uracilpyridine+1% (v/v) MSO. Evaluation performed 14 Days After Treatment (DAT) and shown as injury (0-9) relative to non-transgenic treated plants. Injury Scale: 0-9, 0=no imjury, 9=maximum injury. Note: segregating lines.

[8] = Table iii, ALOMY_PPO2_R137L_F438M (unnamed lines), 50 g ai/ha
[9] = Table iii, ALOMY_PPO2_R137L_F438M (unnamed lines), 100 g ai/ha

Wild Type PPO Enzyme (Amaranthus PPO2, SEQ ID NO: 1), sequence (Q0NZW9 1-534): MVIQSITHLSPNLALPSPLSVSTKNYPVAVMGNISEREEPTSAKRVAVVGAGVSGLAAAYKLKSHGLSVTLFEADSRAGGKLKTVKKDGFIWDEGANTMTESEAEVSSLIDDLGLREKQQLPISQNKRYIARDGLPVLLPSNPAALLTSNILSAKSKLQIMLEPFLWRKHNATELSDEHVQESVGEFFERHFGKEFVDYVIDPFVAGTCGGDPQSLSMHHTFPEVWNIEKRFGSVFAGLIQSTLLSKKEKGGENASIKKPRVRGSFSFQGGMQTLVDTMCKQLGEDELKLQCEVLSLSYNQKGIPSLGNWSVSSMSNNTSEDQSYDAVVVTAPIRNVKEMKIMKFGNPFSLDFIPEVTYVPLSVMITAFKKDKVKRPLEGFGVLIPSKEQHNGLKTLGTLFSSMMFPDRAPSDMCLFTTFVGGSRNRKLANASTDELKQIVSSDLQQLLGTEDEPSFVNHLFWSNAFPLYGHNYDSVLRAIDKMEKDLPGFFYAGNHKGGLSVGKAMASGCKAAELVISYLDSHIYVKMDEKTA

## CCOC(=O)COc1ccccc1Oc1nc(-n2c(=O)cc(C(F)(F)F)n(C)c2=O)c(F)cc1Cl [Uracilpyridine 4, ethyl 2-[2-[[3-chloro-5-fluoro-6-[3-methyl-2,6-dioxo-4-(trifluoromethyl)pyrimidin-1-yl]-2-pyridyl]oxy]phenoxy]acetate]
[1]
  IC50: 173 pM
[2]
  Tolerance Factor (R/S): 1718
[3]
  Tolerance Factor (R/S): 401
[4]
  Tolerance Factor (R/S): 55
[5]
  Tolerance Factor: 810000
[6]; Table ii, ALOMY_PPO2_R137L_F438V event F, 50 g ai/ha
  pest or weed control at 50 g/ha: 8%
[6]; Table ii, ALOMY_PPO2_R137L_F438V event F, 100 g ai/ha
  pest or weed control at 100 g/ha: 20%
[6]; Table ii, ALOMY_PPO2_R137L_F438V event F, 200 g ai/ha
  pest or weed control at 200 g/ha: 20%
[6]; Table ii, ALOMY_PPO2_R137L_F438V event G, 50 g ai/ha
  pest or weed control at 50 g/ha: 8%
[6]; Table ii, ALOMY_PPO2_R137L_F438V event G, 100 g ai/ha
  pest or weed control at 100 g/ha: 15%
[6]; Table ii, ALOMY_PPO2_R137L_F438V event G, 200 g ai/ha
  pest or weed control at 200 g/ha: 8%
[6]; Table ii, ALOMY_PPO2_TP_AMATU_PPO2_R128M_F420I event R, 50 g ai/ha
  pest or weed control at 50 g/ha: 40%
[6]; Table ii, ALOMY_PPO2_TP_AMATU_PPO2_R128M_F420I event R, 100 g ai/ha
  pest or weed control at 100 g/ha: 60%
[6]; Table ii, ALOMY_PPO2_TP_AMATU_PPO2_R128M_F420I event R, 200 g ai/ha
  pest or weed control at 200 g/ha: 80%
[6]; Table ii, AMATU_PPO2_R128A_F420M event Q, 50 g ai/ha
  pest or weed control at 50 g/ha: 55%
[6]; Table ii, AMATU_PPO2_R128A_F420M event Q, 100 g ai/ha
  pest or weed control at 100 g/ha: 60%
[6]; Table ii, AMATU_PPO2_R128A_F420M event Q, 200 g ai/ha
  pest or weed control at 200 g/ha: 60%
[6]; Table ii, AMATU_PPO2_R128M_F420I event K, 50 g ai/ha
  pest or weed control at 50 g/ha: 30%
[6]; Table ii, AMATU_PPO2_R128M_F420I event K, 100 g ai/ha
  pest or weed control at 100 g/ha: 58%
[6]; Table ii, AMATU_PPO2_R128M_F420I event K, 200 g ai/ha
  pest or weed control at 200 g/ha: 73%
[6]; Table ii, AMATU_PPO2_TP_hemG event R, 50 g ai/ha
  pest or weed control at 50 g/ha: 30%
[6]; Table ii, AMATU_PPO2_TP_hemG event R, 100 g ai/ha
  pest or weed control at 100 g/ha: 38%
[6]; Table ii, AMATU_PPO2_TP_hemG event R, 200 g ai/ha
  pest or weed control at 200 g/ha: 65%
[6]; Table ii, AMATU_PPO2_WT event Q, 1 g ai/ha
  pest or weed control at 1 g/ha: 25%
[6]; Table ii, AMATU_PPO2_WT event Q, 5 g ai/ha
  pest or weed control at 5 g/ha: 88%
[6]; Table ii, AMATU_PPO2_WT event Q, 10 g ai/ha
  pest or weed control at 10 g/ha: 100%
[6]; Table ii, AMATU_PPO2_WT event Q, 30 g ai/ha
  pest or weed control at 30 g/ha: 100%
[6]; Table ii, ARBTH WT MC24 non-transgenic, 1 g ai/ha + 1% MSO
  pest or weed control at 1 g/ha: 100%
[6]; Table ii, ARBTH WT MC24 non-transgenic, 5 g ai/ha + 1% MSO
  pest or weed control at 5 g/ha: 100%
[6]; Table ii, ARBTH WT MC24 non-transgenic, 10 g ai/ha + 1% MSO
  pest or weed control at 10 g/ha: 100%
[6]; Table ii, ARBTH WT MC24 non-transgenic, 30 g ai/ha + 1% MSO
  pest or weed control at 30 g/ha: 100%
[6]; Table ii, ARBTH WT MC24 non-transgenic, 50 g ai/ha + 1% MSO
  pest or weed control at 50 g/ha: 100%
[6]; Table ii, ARBTH WT MC24 non-transgenic, 80 g ai/ha + 1% MSO
  pest or weed control at 80 g/ha: 100%
[6]; Table ii, ARBTH WT MC24 non-transgenic, 100 g ai/ha + 1% MSO
  pest or weed control at 100 g/ha: 100%
[6]; Table ii, ARBTH WT MC24 non-transgenic, 200 g ai/ha + 1% MSO
  pest or weed control at 200 g/ha: 100%
[6]; Table ii, ARBTH_PPO1_S305L_Y426M event O, 5 g ai/ha
  pest or weed control at 5 g/ha: 0%
[6]; Table ii, ARBTH_PPO1_S305L_Y426M event O, 10 g ai/ha
  pest or weed control at 10 g/ha: 0%
[6]; Table ii, ARBTH_PPO1_S305L_Y426M event O, 30 g ai/ha
  pest or weed control at 30 g/ha: 0%
[6]; Table ii, ARBTH_PPO1_S305L_Y426M event O, 80 g ai/ha
  pest or weed control at 80 g/ha: 95%
[6]; Table ii, ARBTH_PPO1_WT event Q, 1 g ai/ha
  pest or weed control at 1 g/ha: 33%
[6]; Table ii, ARBTH_PPO1_WT event Q, 5 g ai/ha
  pest or weed control at 5 g/ha: 99%
[6]; Table ii, ARBTH_PPO1_WT event Q, 10 g ai/ha
  pest or weed control at 10 g/ha: 100%
[6]; Table ii, ARBTH_PPO1_WT event Q, 30 g ai/ha
  pest or weed control at 30 g/ha: 100%
[6]; [8]
  pest or weed control at 50 g/ha: 0%
  injury (%): 0%
[6]; [9]
  pest or weed control at 100 g/ha: 0%
  injury (%): 0%
[6]; Table iii, AMATU_PPO2_L397Q_F420V (unnamed lines), 50 g ai/ha
  pest or weed control at 50 g/ha: 60%
[6]; Table iii, AMATU_PPO2_L397Q_F420V (unnamed lines), 100 g ai/ha
  pest or weed control at 100 g/ha: 80%
[6]; Table iii, AMATU_PPO2_R128A_F420I (unnamed lines), 100 g ai/ha
  pest or weed control at 100 g/ha: 55%
[6]; Table iii, AMATU_PPO2_R128A_F420V (unnamed lines), 50 g ai/ha
  pest or weed control at 50 g/ha: 75%
[6]; Table iii, ARBTH WT MC 24 (non-transgenic), 50 g ai/ha + 1% MSO
  pest or weed control at 50 g/ha: 100%
[6]; Table iii, ARBTH WT MC 24 (non-transgenic), 100 g ai/ha + 1% MSO
  pest or weed control at 100 g/ha: 100%
[7]; L397E, F420M Event 2, 25 g/ha + 1% (v/v) MSO
  injury (0-9): 0 (No Injury)
[7]; L397E, F420M Event 2, 50 g/ha + 1% (v/v) MSO
  injury (0-9): 0 (No Injury)
[7]; L397E, F420M Event 2, 100 g/ha + 1% (v/v) MSO
  injury (0-9): 0 (No Injury)
[7]; L397E, F420V Event 1, 25 g/ha + 1% (v/v) MSO
  injury (0-9): 0 (No Injury)
[7]; L397E, F420V Event 1, 50 g/ha + 1% (v/v) MSO
  injury (0-9): 0 (No Injury)
[7]; L397E, F420V Event 1, 100 g/ha + 1% (v/v) MSO
  injury (0-9): 0 (No Injury)
[7]; L397Q, F420M Event 3, 25 g/ha + 1% (v/v) MSO
  injury (0-9): 0 (No Injury)
[7]; L397Q, F420M Event 3, 50 g/ha + 1% (v/v) MSO
  injury (0-9): 3
[7]; L397Q, F420M Event 3, 100 g/ha + 1% (v/v) MSO
  injury (0-9): 3 and 4
